Data: patent US20120225947A1, “RETINAL NEUROPROTECTION BY ION CHANNEL BLOCKERS REGULATED BY THE SUR SUBUNIT” (ASSISTANCE PUBLIQUE - HOPITAUX DE PARIS, priority 2009, published 2012)
Read-outs that look alike come from different tables or passages of the source.

Tests used:
retinal cells [1] = format: in vivo; conditions: vs BSS, P<0.0001, FIG. 10
Description: (§1) To induce retinal neurodegeneration, the inventors injected N-methyl-D-aspartate (NMDA) into the vitreous body of rats, a recognized model of retinal excitotoxicity in which NMDA, a synthetic glutamate analog, promotes cell death (Crisanti et al., 2006). Present in excess amounts, NMDA hyperactivates neuronal excitatory receptors (NMDA receptors) which become permeable to calcium. Injection of NMDA results in an increase in intracellular calcium levels. Intracellular calcium activates enzymes (phospholipase C, endonucleases, proteases) which degrade cell structures and lead to apoptosis.
Eight-week-old male Wistar rats weighing 320-350 g were used. Rats were maintained in standard animal housing with a 12 hr day/12 hr night cycle at a temperature of 21° C.+1° C. and 55±5% humidity. […]
The amount of cell death by apoptosis and the type of cells concerned were evaluated by the number and intraretinal location of TUNEL-positive nuclei. […] The total number of apoptotic cells per retina was calculated with reference to the number of fields counted (therefore to retinal length which varies from one area of the retina to another). The mean of these field counts was calculated for an entire retinal section (composed of 7 to 14 fields) and these means, calculated for the different treatment groups, were compared by a nonparametric Mann-Whitney test with significance at p<0.05. […]

retinal cells [2] = experiment: NMDA-induced retinal degeneration in the rat, different routes of administration of glibenclamide (Example 2), TUNEL apoptotic cell count; format: in vivo; conditions: for apoptotic cell count in retinas exposed to NMDA-induced degeneration: 18 hours, vs NMDA+DMSO, FIG. 6; for NMDA-induced retinal cell degeneration (apoptotic cells per field): intravitreal NMDA the same day
Description: as §1
Eight-week-old male Wistar rats weighing 320-350 g were used. Rats were maintained in standard animal housing with a 12 hr day/12 hr night cycle at a temperature of 21° C.+1° C. and 55±5% humidity.
Retinal sections were permeabilized by incubation in 0.3% Triton ×100 for 20 minutes at room temperature and then incubated for 1 hour at 37° C. with 50 μL of TUNEL reaction mixture per slide (mixture obtained with 40 μL TUNEL enzyme and 360 μL TUNEL label, solution containing FITC-conjugated nucleotides).
The amount of cell death by apoptosis and the type of cells concerned were evaluated by the number and intraretinal location of TUNEL-positive nuclei. For each eye, four complete retinal sections taken from the same eye sectors were used for apoptotic cell counts. The total number of apoptotic cells per retina was calculated with reference to the number of fields counted (therefore to retinal length which varies from one area of the retina to another). The mean of these field counts was calculated for an entire retinal section (composed of 7 to 14 fields) and these means, calculated for the different treatment groups, were compared by a nonparametric Mann-Whitney test with significance at p<0.05.
Eight groups of 2 rats were used. Both eyes of each animal received identical treatment. Three routes of administration of glibenclamide were tested: intravitreal route (1 ng or 0.01 ng injected in each eye), oral route (10 mg/kg body weight) and subconjunctival route (1 ng glibenclamide injected in each eye).
The glibenclamide stock solution for the intravitreal and subconjunctival injections was obtained by diluting 4.5 mg glibenclamide in 300 μL of pure DMSO. This solution was then frozen. The glibenclamide solutions at different concentrations used for the intravitreal and subconjunctival injections were obtained by dilution in BSS® buffer (Alcon) immediately before use.
The glibenclamide solutions for oral administration (10 mg/kg) were obtained by dissolving 8 mg glibenclamide in […] DMSO and 1030 μL of water to give a 6 mg/ml glibenclamide solution, which was administered through a syringe.
Group 1: (n=2, 4 eyes), intravitreal injection of 6 μL of solution containing 45 nM NMDA and 1 ng glibenclamide.
Group 2: (n=2, 4 eyes), intravitreal injection of 6 μL of solution containing 45 nM NMDA and 0.01 ng glibenclamide.
Group 4: (n=2, 4 eyes), oral administration of glibenclamide 10 mg/kg body weight and simultaneous intravitreal injection of 6 μL of 45 nM NMDA. A 7% glucose solution was made available ad libitum to avoid possible hypoglycemia.
Group 6: (n=2, 4 eyes), subconjunctival injection of 50 μL of solution containing 1 ng glibenclamide and simultaneous intravitreal injection of 6 μL of 45 nM NMDA.
18 hours after NMDA and glibenclamide administration, rats were euthanized and the eyes were immediately dissected, fixed in 4% paraformaldehyde and 10% sucrose for 4 hours, then immersed overnight at 4° C. in 15% sucrose in phosphate buffer.
Eyes were then embedded in OCT and cryostat-sectioned (10 μm thick). Sections were labeled by the TUNEL method to detect apoptotic cell death.

COc1ccc(Cl)cc1C(=O)NCCc1ccc(S(=O)(=O)NC(=O)NC2CCCCC2)cc1 [glibenclamide]
protection of retinal cells from NMDA-induced degeneration (apoptotic cells per field) (retinal cells [1]; intravitreal 100 ng in BSS 5 days before intravitreal NMDA): significantly protected | protection of retinal cells from NMDA-induced degeneration (apoptotic cells per field) (retinal cells [1]; intravitreal 100 μg in BSS 5 days before intravitreal NMDA): significantly protected | apoptotic cell count in retinas exposed to NMDA-induced degeneration (retinal cells [2]; intravitreal 0.01 ng co-injected with 45 nM NMDA): significant decrease | organization of the retinal cell layers (DAPI labeling) (retinal cells [2]; intravitreal 0.01 ng co-injected with NMDA, FIG. 7C): perfectly conserved | apoptotic cell count in retinas exposed to NMDA-induced degeneration (retinal cells [2]; intravitreal 1 ng co-injected with 45 nM NMDA): significant decrease | organization of the retinal cell layers (DAPI labeling) (retinal cells [2]; intravitreal 1 ng co-injected with NMDA, FIG. 7B): perfectly conserved | NMDA-induced retinal cell degeneration (apoptotic cells per field) (retinal cells [2]; oral 10 mg/kg, vs DMSO per os, P=0.012, FIG. 8): significantly reduced | NMDA-induced retinal cell degeneration (apoptotic cells per field) (retinal cells [2]; subconjunctival 1 ng, vs DMSO SCJ, P=0.0002, FIG. 9): significantly reduced
